{"source": "patent US12559471B2", "about": "“1,5-dihydro-2,4-benzodiazepine-3-one derivative and application thereof” (JIANGSU NHWA PHARMACEUTICAL CO., LTD, priority 2020, dated 2026)", "key": {"[1]": {"test_system": "MPTP+MK-801-induced Parkinson's disease mouse model", "assay": "MPTP+MK-801-induced Parkinson's disease mouse model (anti-PDP efficacy model)", "assay_type": "in vivo", "details": "ip, mice, intraperitoneal, read-out: PDP efficacy (high activity) ED50", "protocol": "1.1 Effect on MPTP+MK-801-induced Parkinson's disease mouse model (anti-PDP efficacy model)\nAnimals were injected with different doses of MPTP(1-methyl-4-phenyl-1,2,3,6-tetrahydropyridine) intraperitoneally every morning for 5 consecutive days. […] Then, after an interval of 0.25 h, the mice were placed into an autonomous activity test box (a black polyethylene box with the specification of 29 cm×29 cm×30 cm) for video recording for 20 min. Video analysis was performed after the video recording to evaluate the activity of the mice."}, "[2]": {"assay": "MPTP+APO-induced climbing behavior in male mice (DA motor deterioration model)", "assay_type": "in vivo", "details": "mouse, in vivo, ip; male mice, intraperitoneal; read-out: DA side effects (climbing motor deterioration) ED50", "protocol": "(§1) 1.2 Effect on MPTP+APO-induced climbing behavior in male mice (DA motor deterioration model) Animals were injected with different doses of MPTP intraperitoneally every morning for 5 consecutive days. […] After the subcutaneous injection, animals were immediately placed into a climbing cage (self-made, a cylindrical cage with the diameter of 13 cm and the height of 15 cm, made of a stainless steel wire mesh with the diameter of about 0.1 cm, the bottom of which is a semitransparent polyethylene plate, and the cage cover of which is a stainless steel cage cover), and the behaviors of animals at minutes 10-11, 20-21 and 30-31 after the APO injection was observed and scored.\n(§2) Scoring criteria: four feet on the floor scored 0; two forepaws on the cage scored 1; and four feet on the cage scored 2."}, "[3]": {"test_system": "MPTP+APO-induced climbing behavior in male mice", "assay": "MPTP+APO-induced climbing behavior in male mice (DA motor deterioration model)", "assay_type": "in vivo", "details": "male mice, intraperitoneal", "protocol": "as §1, §2"}, "[4]": {"assay": "Investigation of sedation side effects (autonomic activity, movement distance)", "assay_type": "in vivo, mice", "details": "mouse, in vivo, ip; C57BL/6j mice, intraperitoneal, 45 min after administration", "protocol": "1.3 Investigation of Sedation Side Effects (Anti-Sedation Model)\nAccording to different doses of each group, solutions at different concentrations were separately formulated for intraperitoneal injection, with the final administration volume of 10 mL/kg.\nThe movement at 0-20 min was recorded on video, and the movement distance in 20 min was analyzed by Top Scan 3.00 software. The inhibition rate of each group relative to the blank group after the administration were calculated, and the sedation effects of the compounds were comprehensively evaluated in combination with a statistical conclusion."}, "[5]": {"test_system": "DOI-induced head shaking behavior of mice", "assay": "DOI-induced head shaking (head thrust) test in mice", "assay_type": "in vivo", "details": "Mus musculus, intragastric, DOI 1 mg/kg i.p., 0-20 min, read-out: ED50 for inhibiting the DOI-induced head shaking behavior", "protocol": "1. Head Thrust Test in Mice\nMice were stratified according to body weight and then randomly divided into a model control group, a blank control group and drug administration groups. 1 h after the intragastric administration of a vehicle or a drug, the animals were placed in a beaker (with the diameter of 13 cm and the height of 19 cm) paved with fresh padding, and were injected with a modeling drug DOI ((±)-1-(2,5-dimethoxy-4-iodophenyl)-2-aminopropane hydrochloride or (±)-2,5-dimethoxy-4-iodoamphetamine hydrochloride) intraperitoneally at a dose of 1 mg/kg. The head shaking times of the mice during the 0-20 min after the intraperitoneal injection of DOI were recorded. The head shaking behavior is defined as a rapid rotational twitching or wet dog-like shaking of the mouse head, which is distinguished from normal grooming or exploring behavior."}, "[6]": {"test_system": "MK-801-induced high activity behavior of mice", "assay": "Dizocilpine (MK-801)-induced high activity test in mice", "assay_type": "in vivo", "details": "Mus musculus, 1 h, intragastric, MK-801 0.3 mg/kg i.p., 60 min, read-out: ED50 for inhibiting the MK-801-induced high activity behavior", "protocol": "2. Dizocilpine (MK-801)-Induced High Activity Test in Mice 2.1 Test Method\nMice were stratified according to body weight and then randomly divided into a model control group, a blank control group and drug administration groups. After the administration of a test substance (or a control substance), the mice were placed into an autonomous activity test box (a black polyethylene box with the specification of 29 cm×29 cm×30 cm) for adaptation, and injected with MK-801 at 0.3 mg/kg intraperitoneally 1 h after the intragastric administration. The mice were then placed into the autonomous activity test box for video recording for 60 min. Video analysis was performed after the video recording to evaluate the activity of the mice."}, "[7]": {"test_system": "DOI-induced PPI impairment in rats", "assay": "DOI-induced PPI impairment test in rats (intervention test)", "assay_type": "in vivo", "details": "DOI 0.5 mg/kg", "protocol": "3. DOI ((f)-1-(2,5-dimethoxy-4-iodophenyl)-2-aminopropane hydrochloride or (f)-2,5-dimethoxy-4-iodoamphetamine hydrochloride) induced PPI impairment effect test in rats\n30 min after the intragastric administration of a drug (or a vehicle) and 30 min after the subcutaneous injection of DOI at 0.5 mg/kg at the neck, namely 60 min after the intragastric administration, the rats were placed into a startle reflex test box for testing.\n(§3) The test was performed according to literature and preliminary experiments, and the specific process was as follows: first an adaptation period of 5 min was given (62 dB background sound), and 5 separate startle reflex stimuli were given after the adaptation period (blockl, results not included in the analysis to reduce the initial response of the animals to a plateau level), followed by 4 different types of tests (block2) presented in a pseudo-random manner, namely: 1) startle reflex stimulus alone (pulse-alone, 120 dB, lasting 20 ms); 2) prepulse stimulus alone 13 dB above the background sound (prepulse-alone, 75 dB, lasting 20 ms); 3) prepulse stimulus in combination with startle reflex stimulus, each lasting 20 ms, with an interval of 100 ms; and 4) no stimulus in which only the background sound was given (no stimulus). Each trial was performed 5 times, with an average interval of 20 s (10-30 s) between trials.\nThe response amplitude of the startle reflex stimulus alone or the prepulse stimulus in combination with startle reflex stimulus was expressed as the AVG (instrument-specific unit) value, which indirectly reflects the size of the flinching response of the rat body. Evaluation index: PPI %=(1−response amplitude of prepulse stimulus in combination with startle reflex stimulus/response amplitude of startle reflex stimulus alone)×100. The higher the value is, the greater the degree of the inhibition is."}, "PPI in normal rats": {"test_system": "PPI in normal rats", "assay": "PPI in normal rats (dosing test, normal saline instead of DOI)", "assay_type": "in vivo", "details": "normal saline", "protocol": "as §3\nThe response amplitude of the startle reflex stimulus alone or the prepulse stimulus in combination with startle reflex stimulus was expressed as the AVG (instrument-specific unit) value, which indirectly reflects the size of the flinching response of the rat body. Evaluation index: PPI %=(1−response amplitude of prepulse stimulus in combination with startle reflex stimulus/response amplitude of startle reflex stimulus alone)×100. The higher the value is, the greater the degree of the inhibition is. Dosing Test:\nThe DOI at 0.5 mg/kg administered to animals in the above groups was changed to normal saline (NS), and other operations including administration and testing were the same as those in the intervention test."}, "5-HT2B receptor": {"target": "5-HT2B receptor (Homo sapiens (Human), UniProt P41595)", "sequence (P41595 whole entry)": "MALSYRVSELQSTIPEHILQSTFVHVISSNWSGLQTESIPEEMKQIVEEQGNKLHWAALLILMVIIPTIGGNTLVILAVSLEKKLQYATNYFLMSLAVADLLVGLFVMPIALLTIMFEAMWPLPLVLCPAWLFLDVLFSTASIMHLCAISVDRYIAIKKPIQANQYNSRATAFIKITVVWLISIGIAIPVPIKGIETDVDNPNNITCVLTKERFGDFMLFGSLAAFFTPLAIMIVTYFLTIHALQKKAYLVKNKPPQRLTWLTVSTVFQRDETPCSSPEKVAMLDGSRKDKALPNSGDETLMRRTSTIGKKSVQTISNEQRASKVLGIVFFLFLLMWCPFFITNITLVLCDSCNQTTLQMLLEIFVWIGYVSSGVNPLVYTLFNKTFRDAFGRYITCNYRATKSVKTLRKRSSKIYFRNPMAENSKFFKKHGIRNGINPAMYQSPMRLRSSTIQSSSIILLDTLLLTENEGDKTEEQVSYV", "details": "background statement, no significant affinity; cited from earlier work"}, "adrenergic receptor": {"target": "adrenergic receptor", "details": "background statement, no significant affinity; cited from earlier work"}, "muscarinic receptor": {"target": "muscarinic receptor", "details": "background statement, no significant affinity; cited from earlier work"}, "calcium channel receptor": {"target": "calcium channel receptor", "details": "background statement, no significant affinity; cited from earlier work"}}, "note": "Several values for one entry are separate records, joined by “and”; a condition that tells them apart may be missing. Equal entries are not always repeated."}
{"compound": "CC(C)COc1ccc(CNC(=O)N(Cc2ccc(F)cc2)C2CCN(C)CC2)cc1", "note": "[Pimavanserin, reference compound]", "values": [{"measurement": "ED50", "setting": "[1]", "result": 0.37, "unit": "mg/kg"}, {"measurement": "ED50", "setting": "[2]", "result": "> 30", "unit": "mg/kg"}, {"measurement": "DA side effects (climbing motor deterioration) ED50", "setting": "[3]", "result": ">30", "unit": "mg/kg"}, {"measurement": "ED50 at 45 min", "setting": "[4]", "result": 6.79, "unit": "mg/kg"}, {"measurement": "ED50", "setting": "[5]", "result": 0.39, "unit": "mg/kg"}, {"measurement": "ED50", "setting": "[6]", "result": 3.29, "unit": "mg/kg"}, {"measurement": "reversal of DOI-induced PPI impairment", "setting": "[7]; 3 mg/kg, P<0.05", "result": "significantly reverse"}, {"measurement": "PPI %, MEAN", "setting": "[7]; 1 mg/kg intragastric", "result": 28.93, "unit": "%"}, {"measurement": "PPI %, individual animal", "setting": "[7]; 1 mg/kg intragastric", "result": "30.19% and 7.34% and 12.78% and −9.80% and 36.56% and 57.19% and 55.33% and 41.86%"}, {"measurement": "PPI %, MEAN", "setting": "[7]; 3 mg/kg intragastric", "result": 42.65, "unit": "%"}, {"measurement": "PPI %, individual animal", "setting": "[7]; 3 mg/kg intragastric", "result": "25.79% and 45.06% and 35.48% and 4.10% and 30.23% and 62.54% and 62.41% and 75.59%"}, {"measurement": "PPI %, MEAN", "setting": "[7]; 10 mg/kg intragastric", "result": 47.32, "unit": "%"}, {"measurement": "PPI %, individual animal", "setting": "[7]; 10 mg/kg intragastric", "result": "69.36% and 54.29% and 71.90% and 24.73% and 32.57% and 37.52% and 33.19% and 55.00%"}, {"measurement": "PPI %, MEAN", "setting": "PPI in normal rats; 1 mg/kg intragastric", "result": 63.11, "unit": "%"}, {"measurement": "PPI %, individual animal", "setting": "PPI in normal rats; 1 mg/kg intragastric", "result": "14.80% and 45.96% and 67.95% and 61.11% and 92.15% and 83.93% and 70.62% and 68.32%"}, {"measurement": "PPI %, MEAN", "setting": "PPI in normal rats; 3 mg/kg intragastric", "result": 60.54, "unit": "%"}, {"measurement": "PPI %, individual animal", "setting": "PPI in normal rats; 3 mg/kg intragastric", "result": "76.95% and 37.54% and 42.51% and 64.49% and 42.29% and 71.78% and 84.89% and 63.88%"}, {"measurement": "PPI %, MEAN", "setting": "PPI in normal rats; 10 mg/kg intragastric", "result": 57.00, "unit": "%"}, {"measurement": "PPI %, individual animal", "setting": "PPI in normal rats; 10 mg/kg intragastric", "result": "83.19% and 80.13% and 44.91% and 82.49% and 52.16% and −32.12% and 72.74% and 72.49%"}, {"measurement": "Ki", "setting": "5-HT2B receptor", "result": "> 300", "unit": "nM"}, {"measurement": "Ki", "setting": "adrenergic receptor", "result": "> 300", "unit": "nM"}, {"measurement": "Ki", "setting": "muscarinic receptor", "result": "> 300", "unit": "nM"}, {"measurement": "Ki", "setting": "calcium channel receptor", "result": "> 300", "unit": "nM"}]}
